Some test systems named below: UO-31 renal; SK-OV-3 ovarian; IGROV1 ovarian; MALME-3M melanoma; 786-0 renal; NCI-H226 lung; SF-295 CNS; DU-145 prostate; PC-3 prostate; HCT-116 colon.
Holding throughout (test): inhibition of tumour cell growth, NCI panel, 48 h

Several values for one entry are separate records, joined by “and”; a condition that tells them apart may be missing. Identical values can stand only once.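 Grown in 96-well plates, cells were treated for 48 hours with each compound at five concentrations. Insufficient inhibition: endpoint recorded as highest concentration tested. Here, GI50 denotes the concentration required for 50% inhibition of growth. TGI marks complete inhibition of growth.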

`N=C(N)c1ccc(-c2ccc(-c3ccc(F)cc3)o2)o1`: the GI50 in the assay on UO-31 renal is 1430 nM; with SK-OV-3 ovarian, 2320 nM; in the assay on IGROV1 ovarian, 1580 nM; in the assay with MALME-3M melanoma, 1630 nM; in the assay on 786-0 renal, 1660 nM; with NCI-H226 lung it was 2820 nM. The GI50 is 1510 nM in the assay with SF-295 CNS, 1800 nM in the assay on DU-145 prostate, 1220 nM with PC-3 prostate and 1180 nM in the assay with HCT-116 colon. For the same compound, the TGI was determined as 2.78 µM in the assay with UO-31 renal; 7.14 µM in the assay with SK-OV-3 ovarian; 3.35 µM with IGROV1 ovarian; 3.26 µM with MALME-3M melanoma; 3.49 µM in the assay with 786-0 renal; 9.71 µM in the assay with NCI-H226 lung. For the same compound, the TGI was found to be 3.05 µM with SF-295 CNS, 3.36 µM in the assay on DU-145 prostate, 2.57 µM in the assay with PC-3 prostate and 2.59 µM with HCT-116 colon.

In the case of `COc1ccc(-n2c(C)nc3c(c(C)nn3-c3ccccc3)c2=O)cc1`, the GI50 is 261 nM in the assay on UO-31 renal; 1080 nM in the assay on SK-OV-3 ovarian; 70.1 nM with IGROV1 ovarian; 15900 nM in the assay with MALME-3M melanoma; 65.4 nM in the assay on 786-0 renal; 207 nM with NCI-H226 lung. The GI50 is 59.4 nM in the assay with SF-295 CNS, 290 nM with DU-145 prostate, 60.3 nM in the assay on PC-3 prostate and 44.3 nM in the assay on HCT-116 colon. For the same compound, the TGI in the assay on UO-31 renal was over 43.4 µM; with SK-OV-3 ovarian, over 100 µM; in the assay with IGROV1 ovarian, over 100 µM; in the assay with MALME-3M melanoma it was over 100 µM; in the assay with 786-0 renal it was over 100 µM; in the assay on NCI-H226 lung it was over 100 µM. Moreover, the TGI was over 100 µM in the assay with SF-295 CNS, over 100 µM with DU-145 prostate, over 100 µM with PC-3 prostate and 7.91 µM in the assay on HCT-116 colon.

On to `Cc1cc(N=C2C=C(Nc3cc(C)on3)C(=O)c3ccccc32)no1`, for which the TGI with UO-31 renal was over 100 µM; with SK-OV-3 ovarian, over 100 µM; in the assay on IGROV1 ovarian, over 78.1 µM; in the assay on MALME-3M melanoma it was 53 µM; in the assay on 786-0 renal it was 98.8 µM; in the assay with NCI-H226 lung it was over 100 µM. Further, the TGI in the assay on SF-295 CNS, in the assay on DU-145 prostate, in the assay with PC-3 prostate and with HCT-116 colon was over 100 µM throughout.

As to `Cc1ccc(F)cc1NC(=O)c1cc(Cl)ccc1Nc1ccccc1`, the GI50 with UO-31 renal is over 100000 nM; with SK-OV-3 ovarian, over 100000 nM; in the assay with IGROV1 ovarian, over 100000 nM; in the assay with MALME-3M melanoma it was over 100000 nM; in the assay on 786-0 renal, 52100 nM; in the assay with NCI-H226 lung it was over 100000 nM. Moreover, the GI50 in the assay with SF-295 CNS is 56000 nM; in the assay with DU-145 prostate, over 100000 nM; in the assay with PC-3 prostate it was over 100000 nM; with HCT-116 colon, over 100000 nM. Further, the TGI with UO-31 renal, in the assay on SK-OV-3 ovarian, in the assay on IGROV1 ovarian, with MALME-3M melanoma, in the assay on 786-0 renal and in the assay with NCI-H226 lung was over 100 µM in each case. The TGI in the assay on SF-295 CNS, with DU-145 prostate, in the assay with PC-3 prostate and in the assay on HCT-116 colon was over 100 µM throughout.

Take `COc1ccc2c(c1)C(=O)c1c-2n(CCCN2CCOCC2)c(=O)c2cc([N+](=O)[O-])ccc12`: the GI50 is under 10 nM in the assay on UO-31 renal; under 10 nM with SK-OV-3 ovarian; under 10 nM in the assay with IGROV1 ovarian; under 11.7 nM in the assay with MALME-3M melanoma; under 10 nM in the assay with 786-0 renal; under 10 nM with NCI-H226 lung. Moreover, the GI50 with SF-295 CNS, in the assay with DU-145 prostate, in the assay on PC-3 prostate and in the assay with HCT-116 colon was under 10 nM throughout. Also, the TGI in the assay on UO-31 renal is 0.0572 µM; in the assay with SK-OV-3 ovarian, 14.5 µM; in the assay on IGROV1 ovarian it was 25.7 µM; in the assay with MALME-3M melanoma, 0.779 µM; in the assay on NCI-H226 lung, 0.405 µM; in the assay on DU-145 prostate it was 0.0106 µM. The figures for the TGI in the assay with PC-3 prostate and in the assay with HCT-116 colon were over 31.9 µM and 0.0454 µM, respectively.

With `CNCCOC(=O)/C=C1/CCC2C(C(O)CC3C(C)(C(=O)OC)CCCC23C)C1C` (stereo unspecified), the GI50 was 18.7 nM with UO-31 renal; 20.5 nM in the assay on SK-OV-3 ovarian; 30.5 nM in the assay on IGROV1 ovarian; 25.3 nM with MALME-3M melanoma; 16.6 nM with 786-0 renal; 19.1 nM in the assay with NCI-H226 lung. For the same compound, the GI50 in the assay with SF-295 CNS is 20.9 nM; in the assay on DU-145 prostate, 16 nM; with PC-3 prostate, 21.4 nM; in the assay with HCT-116 colon it was 15.8 nM. In addition, the TGI in the assay on UO-31 renal was found to be 0.0372 µM; in the assay with SK-OV-3 ovarian, 0.0394 µM; in the assay on IGROV1 ovarian, 0.0971 µM; in the assay on MALME-3M melanoma it was 0.0599 µM; in the assay on 786-0 renal, 0.0341 µM; with NCI-H226 lung, 0.0408 µM. Besides, the TGI stood at 0.0452 µM in the assay on SF-295 CNS, 0.0305 µM in the assay with DU-145 prostate, 0.202 µM with PC-3 prostate and 0.0311 µM with HCT-116 colon.

`O=C(NC1(C(=O)O)CC1c1ccccc1)c1ccccc1` (stereo unspecified): the TGI with UO-31 renal, in the assay on SK-OV-3 ovarian, with IGROV1 ovarian, in the assay with MALME-3M melanoma, in the assay on 786-0 renal and in the assay on NCI-H226 lung was over 100 µM each time. Also, the TGI with SF-295 CNS, with DU-145 prostate, with PC-3 prostate and in the assay with HCT-116 colon was over 100 µM each time.

Consider `CCOC(=O)/C(=C\c1ccc(F)cc1)C(C)=O`, for which the TGI in the assay with UO-31 renal was 31.2 µM; in the assay with SK-OV-3 ovarian it was over 100 µM; in the assay on IGROV1 ovarian it was 38.9 µM; in the assay on MALME-3M melanoma it was 43.1 µM; with 786-0 renal, 49.4 µM; in the assay on NCI-H226 lung, 75.2 µM. The TGI with SF-295 CNS is 79.3 µM; with DU-145 prostate, 56.8 µM; in the assay on PC-3 prostate, 38.2 µM; in the assay with HCT-116 colon it was 91.8 µM.

Take `COC(=O)[C@@H]1CCCN1C(=O)[C@H]1CCCN1C(=O)[C@@H](Cc1c[nH]c2ccccc12)NC(=S)Nc1cc(C(F)(F)F)cc(C(F)(F)F)c1`: the GI50 in the assay with UO-31 renal is 3230 nM; in the assay on SK-OV-3 ovarian, 6560 nM; in the assay on IGROV1 ovarian it was 2590 nM; in the assay on MALME-3M melanoma, 2650 nM; with 786-0 renal it was 7500 nM; with NCI-H226 lung, 2860 nM. The GI50 in the assay with SF-295 CNS is 2270 nM; in the assay on DU-145 prostate, 2240 nM; in the assay with PC-3 prostate, 1750 nM; in the assay with HCT-116 colon, 1960 nM. In addition, the TGI amounted to 11.6 µM in the assay on UO-31 renal; 18.9 µM with SK-OV-3 ovarian; 6.73 µM with IGROV1 ovarian; 7.24 µM with MALME-3M melanoma; 20.2 µM in the assay on 786-0 renal; 11.7 µM with NCI-H226 lung. The TGI with SF-295 CNS came out at 5.71 µM; with DU-145 prostate it was 4.63 µM; in the assay with PC-3 prostate, 3.98 µM; in the assay on HCT-116 colon, 4.14 µM.

Turning to `COc1ccc(C(=O)CC(c2ccc(OC)c(OC)c2)c2c(O)c3ccccc3oc2=O)cc1OC` (stereo unspecified), the TGI with UO-31 renal, with SK-OV-3 ovarian, in the assay on IGROV1 ovarian, in the assay on MALME-3M melanoma, with 786-0 renal and in the assay on NCI-H226 lung was over 100 µM each time. The TGI in the assay on SF-295 CNS, in the assay on DU-145 prostate, in the assay with PC-3 prostate and with HCT-116 colon was over 100 µM in each case.

For the compound `COc1cc2ncn(-c3cc(OCc4ccccc4S(C)(=O)=O)c(C#N)s3)c2cc1OC`, the GI50 in the assay with UO-31 renal was over 25000 nM; in the assay on SK-OV-3 ovarian it was over 16100 nM; in the assay on IGROV1 ovarian, over 25000 nM; with MALME-3M melanoma, over 25000 nM; in the assay with 786-0 renal it was over 25000 nM; with NCI-H226 lung it was over 25000 nM. The GI50 with SF-295 CNS, in the assay with DU-145 prostate, with PC-3 prostate and with HCT-116 colon was over 25000 nM in each case. Moreover, the TGI in the assay on UO-31 renal, in the assay with SK-OV-3 ovarian, in the assay with IGROV1 ovarian, in the assay with MALME-3M melanoma, with 786-0 renal and in the assay on NCI-H226 lung was over 25 µM throughout. The TGI in the assay with SF-295 CNS, in the assay on DU-145 prostate, with PC-3 prostate and with HCT-116 colon was over 25 µM each time.

Turning to `COc1ccc(-c2nc3sc4c(c3c(=O)[nH]2)CCCC4)c2ccccc12`, the GI50 in the assay on UO-31 renal is 590 nM; in the assay with MALME-3M melanoma, 749 nM; with NCI-H226 lung, 1410 nM; with SF-295 CNS, 314 nM; in the assay on PC-3 prostate it was 343 nM and 37.1 nM; in the assay on HCT-116 colon, 371 nM. The TGI in the assay on SK-OV-3 ovarian was 3.74 µM; with IGROV1 ovarian, over 100 µM; in the assay with MALME-3M melanoma, 9.03 µM; in the assay on 786-0 renal it was 3.8 µM; in the assay with SF-295 CNS it was 1.2 µM; in the assay with DU-145 prostate, 17.5 µM. The same compound returned a TGI with PC-3 prostate of over 100 µM.

The values are drawn from PubChem BioAssay (NCI).
